Earlier results as cited in US20110165241A1, “BAZEDOXIFENE FORMULATIONS WITH ANTIOXIDANTS” (Wyeth LLC, priority 2009, published 2011).

What was measured:
uterine response = details: in vivo
[1] = test system: MCF-7 cell line (human breast cancer cell line)
[2] = test system: ovariectomized rat model of osteopenia; details: in vivo

SMILES: Cc1c(-c2ccc(O)cc2)n(Cc2ccc(OCCN3CCCCCC3)cc2)c2ccc(O)cc12 [bazedoxifene, 1-[4-(2-azepan-1-yl-ethoxy)-benzyl]-2-(4-hydroxy-phenyl)-3-methyl-1H-indol-5-ol]
- stimulation of uterine response (uterine response): little or no stimulation of uterine response
- estrogen receptor activity in MCF-7 cells [1]: behaves as an estrogen antagonist
- effect on bone loss and cholesterol [2]: estrogen agonist-like effect in preventing bone loss and reducing cholesterol
